# Key:
# [1] = biological target: T1, wild-type human CFTR (Homo sapiens, UniProt P13569); test: CFTR Cl− channels recorded in excised inside-out membrane patches from C127 cells (patch-clamp); format: biochemical
# T1 construct: expressed in transfected cells
# Method: For electrophysiological experiments, we used mouse mammary epithelial cells (C127 cells) stably expressing wild-type human CFTR (12). C127 cells expressing wild-type CFTR were cultured as previously described (10). Cells were seeded onto glass coverslips and used within 48 h.
# The established sign convention was used throughout; currents produced by positive charge moving from intra- to extracellular solutions (anions moving in the opposite direction) are shown as positive currents.
# […] […] All experiments were conducted at 37° C.
# PKA was maintained in the intracellular solution for the duration of experiments. Unless otherwise stated, voltage was −50 mV.
# In time course studies, each point is the average current for a 4 s period with data points collected continuously; no data were collected while solutions were changed. Average current (I) for a specific intervention was determined as the average of all the data points collected during the intervention. […] Mean data were fitted to a linear form of equation (1) using linear least-squares regression to yield Ki and n values.
# To measure single-channel current amplitude (i), Gaussian distributions were fitted to current amplitude histograms. For open probability (Po) and kinetic analyses, lists of open and closed times were created using a half-amplitude crossing criterion for event detection. Transitions <1 ms in duration were excluded from the analyses. Po was calculated using the equation: Po=(T1+T2+ . . . +TN)/(NTtot), (2) where N is the number of channels; Ttot is the total time analysed, and T1 is the time that one or more channels are open, T2 is the time two or more channels are open and so on. Only membrane patches that contained a single active channel were used for single-channel kinetic analyses.
# To investigate whether inhibition of CFTR by fluorescein derivatives was voltage dependent, we used voltage ramp protocols. Macroscopic current-voltage (I-V) relationships were obtained in the absence and presence of fluorescein derivatives by averaging currents generated by 15-30 ramps of voltage each of 2 s duration; holding voltage was −50 mV. Basal currents recorded in the absence of PKA and ATP were subtracted from those recorded in the absence and presence of fluorescein derivatives to determine the effect of these agents on CFTR Cl^− currents.
# [2] = tested on: Type I Madin-Darby canine kidney (MDCK) cells; test: Cyst growth of MDCK cells in collagen gels with cAMP agonists; format: cell-based; details: for cyst volume: day 21 vs day 12; for size of cysts (phase-contrast): days 12 to 21
# Method: (§1) For cyst growth and cell proliferation experiments, we used Type I Madin-Darby canine kidney (MDCK) cells. We chose Type I MDCK cells because they form cysts when grown in collagen gels in the presence of cAMP agonists (26) and because they express the CFTR Cl^− channel (27). MDCK cells were cultured in MDCK media (a 1:1 mixture of Dulbecco's Modified Eagle Medium (DMEM) and Ham's F-12 nutrient medium supplemented with 100 U ml^−1 penicillin, and 100 μg ml^−1 streptomycin and either 10% fetal bovine serum (FBS; cyst growth) or 5% FBS and 1% insulin-transferrin-selenium-X (ITS-X) supplement (cell proliferation); all from Life Technologies Ltd, Paisley, UK) at 37° C. in a humidified atmosphere of 5% CO2.
# To grow cysts, MDCK cells were cultured in collagen gels using a modification of the method of Grantham et al. (26). Cells were trypsinized with 0.25% (wt/vol) trypsin for 30 minutes at 37° C., diluted with MDCK media containing 10% FBS to form a suspension of between 1-3×10^4 cells ml^−1, and aliquoted into individual wells of a 24-well plate (0.1 ml per well). Each well contained 0.4 ml of ice-cold Vitrogen (3.0 mg ml^−1 collagen; Cohesion Technologies Inc., Palo Alto, USA) supplemented with 10% (vol/vol) 10× minimum essential medium, 10 mM N-[2-hydroxyethyl]piperazine-N′-[2-ethanesulphonic acid] (Hepes), 27 mM NaHCO3, 100 U ml^−1 penicillin, and 100 μg ml^−1 streptomycin, and adjusted to pH 7.4 with NaOH. The 24-well plate was gently agitated to distribute cells throughout the Vitrogen and incubated in a water bath at 37° C. for 90 minutes to promote gelation of the Vitrogen.
# After gelation, 1.5 ml MDCK media containing 10% FBS was added to each well of the 24-well plate. To promote cyst growth, we added cAMP agonists (forskolin (10 μM), 3-isobutyl-1-methylxanthine (IBMX; 100 μM), and 8-(4-chlorophenylthio) adenosine 3′:5′-cyclic monophosphate (CPT-cAMP; 500 μM)) to the MDCK media. Plates were maintained at 37° C. in a humidified atmosphere of 5% CO2 and the MDCK media containing cAMP agonists changed every three days.
# Twelve days after seeding collagen gels with MDCK cells, cysts were readily detected at ×1000 magnification using an inverted microscope with phase contrast optics (Leica, model DMIL, Milton Keynes, UK). To test the effect of CFTR modulators on cyst growth, drugs were added to MDCK media in the continued presence of cAMP agonists. MDCK media containing cAMP agonists and CFTR modulators was changed every 3 days for a total period of 9 days. Photographs of individual cysts were taken before the addition of CFTR modulators and at three day intervals over the duration of the experiment. To identify individual cysts, each cyst was assigned a unique reference number using a grid placed below the 24-well plate.
# The diameter of cysts was measured directly from photographs of cysts using images that had been magnified by identical amounts. By assuming that cysts are spherical in shape, we calculated cyst volume ( 4/3·π·r^3).
# [3] = tested on: Type I MDCK cells; test: Proliferation of MDCK cells (cell counting); format: cell-based, canine
# Method: as §1
# To test the effect of CFTR modulators on the proliferation of MDCK cells, we used Type I MDCK cells grown in media containing 5% FBS and 1% ITS-X supplement. On day −1, MDCK cells were seeded at 7.5×10^4 cells ml^−1 in 35 mm dishes containing MDCK media with 1% FBS and 1% ITS-X supplement. On day 0, the concentration of FBS was reduced further to 0.01% and CFTR modulators added to the MDCK media. MDCK media containing CFTR modulators was changed every 2 days for a total period of 6 days. To determine the number of cells per 35 mm dish, Type I MDCK cells were harvested using trypsin (0.25% wt/vol), centrifuged at 1200 rpm for 5 min and resuspended in 1 ml of MDCK media before counting using a haemocytometer.
# T1 sequence (P13569 whole entry): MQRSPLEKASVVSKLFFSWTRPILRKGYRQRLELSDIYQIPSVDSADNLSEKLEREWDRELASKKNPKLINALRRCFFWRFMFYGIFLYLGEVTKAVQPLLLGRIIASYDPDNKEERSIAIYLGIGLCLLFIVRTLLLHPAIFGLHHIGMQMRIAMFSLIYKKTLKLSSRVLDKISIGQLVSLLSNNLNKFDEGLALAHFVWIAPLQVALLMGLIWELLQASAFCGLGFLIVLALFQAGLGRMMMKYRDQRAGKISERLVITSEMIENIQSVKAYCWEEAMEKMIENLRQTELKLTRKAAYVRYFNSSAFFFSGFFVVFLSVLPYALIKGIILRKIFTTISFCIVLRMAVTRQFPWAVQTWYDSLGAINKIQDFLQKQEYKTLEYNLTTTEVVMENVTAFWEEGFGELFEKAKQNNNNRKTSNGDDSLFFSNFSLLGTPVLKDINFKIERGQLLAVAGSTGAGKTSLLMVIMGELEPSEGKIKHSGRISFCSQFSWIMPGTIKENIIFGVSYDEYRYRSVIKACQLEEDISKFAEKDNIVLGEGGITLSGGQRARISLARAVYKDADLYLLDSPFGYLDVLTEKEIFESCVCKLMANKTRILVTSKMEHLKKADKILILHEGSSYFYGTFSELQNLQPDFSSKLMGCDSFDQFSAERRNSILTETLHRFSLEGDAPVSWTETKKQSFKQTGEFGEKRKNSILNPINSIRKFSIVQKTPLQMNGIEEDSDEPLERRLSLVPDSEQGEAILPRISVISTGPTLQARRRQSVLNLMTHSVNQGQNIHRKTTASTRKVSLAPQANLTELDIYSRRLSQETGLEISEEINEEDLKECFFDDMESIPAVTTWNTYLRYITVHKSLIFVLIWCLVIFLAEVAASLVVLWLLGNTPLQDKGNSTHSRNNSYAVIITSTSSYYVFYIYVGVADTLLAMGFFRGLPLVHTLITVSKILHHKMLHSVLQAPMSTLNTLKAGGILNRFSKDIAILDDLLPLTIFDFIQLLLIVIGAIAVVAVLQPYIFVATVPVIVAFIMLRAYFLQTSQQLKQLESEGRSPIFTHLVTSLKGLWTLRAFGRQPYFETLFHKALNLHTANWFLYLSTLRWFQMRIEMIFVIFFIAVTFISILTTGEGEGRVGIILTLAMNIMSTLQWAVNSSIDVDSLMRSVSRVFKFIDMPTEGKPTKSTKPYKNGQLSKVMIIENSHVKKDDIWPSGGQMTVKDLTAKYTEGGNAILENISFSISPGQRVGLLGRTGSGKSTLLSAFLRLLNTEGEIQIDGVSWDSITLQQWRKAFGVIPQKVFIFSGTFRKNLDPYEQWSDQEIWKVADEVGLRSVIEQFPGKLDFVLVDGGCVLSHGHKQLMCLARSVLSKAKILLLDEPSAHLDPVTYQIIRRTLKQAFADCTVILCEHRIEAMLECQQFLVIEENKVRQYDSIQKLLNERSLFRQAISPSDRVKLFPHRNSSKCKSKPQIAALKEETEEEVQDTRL
smiles,measurement,setting,value
"O=[N+]([O-])c1ccc(C=Cc2ccc([N+](=O)[O-])cc2S(=O)(=O)O)c(S(=O)(=O)O)c1 [DIDS, 4,4′-dinitrostilbene-2,2′-disulphonic acid]",effect on activity of CFTR,"[1]; 200 μM, added to the intracellular side",potently inhibited
same,cyst volume,"[2]; 200 μM, P>0.5",exception
same,size of cysts (phase-contrast),[2]; 200 μM,without effect on cyst growth
same,"cell growth (number of cells), day 0 to 6",[3]; 200 μM,exception
"O=C(O)c1cc([N+](=O)[O-])ccc1NCCCc1ccccc1 [NPPB, 5-nitro-2-(3-phenylpropylamino)-benzoic acid]",rank order of decrease of cyst volume,[2],glibenclamide (100 μM)≧ouabain (1 μM)≧NPPB (400 μM)≧genistein (100 μM)>bumetanide
same,cyst volume,[2]; 400 μM,decreased cyst volume
same,size of cysts (phase-contrast),[2]; 400 μM,visible decrease in the size of cysts
same,inhibition of cell growth in the presence of cAMP agonists,[3],unaffected by cAMP agonists
same,rank order of prevention of cell growth,[3],ouabain (1 μM)=phloxine B (40 μM)=genistein (100 μM)=NPPB (400 μM)>glibenclamide (100 μM)
same,"cell growth (number of cells), day 0 to 6",[3]; 400 μM,prevented cell growth
O=C1OC2(c3cc(I)c(O)c(I)c3Oc3c2cc(I)c(O)c3I)c2c(Cl)c(Cl)c(Cl)c(Cl)c21 [bengal rose B],potency of CFTR inhibition compared with glibenclamide,[1],potency greater than or equal to that of glibenclamide
same,reversibility of CFTR inhibition,[1],irreversible
same,single-channel activity (i and/or Po),[1]; 10 μM,never able to resolve discrete channel openings
same,rank order of potency for CFTR inhibition,"[1]; concentration-response, FIG. 3",bengal rose B>phloxine B>eosin Y≧tetrachlorofluorescein>>fluorescein
same,stimulation of CFTR channel activity,"[1]; concentration-response, FIG. 3",stimulated channel activity
same,"cell growth (number of cells), day 0 to 6",[3]; 5 μM,inhibited the proliferation
CCCCNc1cc(C(=O)O)cc(S(N)(=O)=O)c1Oc1ccccc1 [bumetanide],rank order of decrease of cyst volume,[2],glibenclamide (100 μM)≧ouabain (1 μM)≧NPPB (400 μM)≧genistein (100 μM)>bumetanide
same,cyst volume,[2]; 100 μM,decreased cyst volume
same,"cell growth (number of cells), day 0 to 6",[3]; 100 μM,exception
O=C1OC2(c3ccc(O)cc3Oc3cc(O)ccc32)c2ccccc21 [fluorescein],rank order of potency for CFTR inhibition,"[1]; concentration-response, FIG. 3",bengal rose B>phloxine B>eosin Y≧tetrachlorofluorescein>>fluorescein
O=c1c(-c2ccc(O)cc2)coc2cc(O)cc(O)c12 [genistein],rank order of decrease of cyst volume,[2],glibenclamide (100 μM)≧ouabain (1 μM)≧NPPB (400 μM)≧genistein (100 μM)>bumetanide
same,cyst volume,[2]; 100 μM,decreased cyst volume
same,inhibition of cell growth in the presence of cAMP agonists,[3],unaffected by cAMP agonists
same,rank order of prevention of cell growth,[3],ouabain (1 μM)=phloxine B (40 μM)=genistein (100 μM)=NPPB (400 μM)>glibenclamide (100 μM)
same,"cell growth (number of cells), day 0 to 6",[3]; 100 μM,prevented cell growth
COc1ccc(Cl)cc1C(=O)NCCc1ccc(S(=O)(=O)NC(=O)NC2CCCCC2)cc1 [glibenclamide],effect on channel block by phloxine B (20 μM),[1]; glibenclamide 50 μM,potentiated channel block
same,rank order of decrease of cyst volume,[2],glibenclamide (100 μM)≧ouabain (1 μM)≧NPPB (400 μM)≧genistein (100 μM)>bumetanide
same,cyst volume,[2]; 100 μM,decreased cyst volume
same,size of cysts (phase-contrast),[2]; 100 μM,visible decrease in the size of cysts
same,inhibition of cell growth in the presence of cAMP agonists,[3],unaffected by cAMP agonists
same,rank order of prevention of cell growth,[3],ouabain (1 μM)=phloxine B (40 μM)=genistein (100 μM)=NPPB (400 μM)>glibenclamide (100 μM)
same,"cell growth (number of cells), day 0 to 6",[3]; 100 μM,prevented cell growth
O=C(O)c1c(Cl)c(Cl)c(Cl)c(Cl)c1-c1c2ccc(=O)cc-2oc2cc(O)ccc12 [tetrachlorofluorescein],potency of CFTR inhibition compared with glibenclamide,[1],less potently than glibenclamide
same,reversibility of CFTR inhibition,[1],partially reversible
same,open probability (Po),[1]; 100 μM,decreasing
same,single-channel current amplitude (i),[1]; 100 μM,decreasing
same,channel block at positive voltages,"[1]; 100 μM, symmetrical 147 mM Cl−",relieved
same,effect on CFTR Cl− currents at negative voltages,"[1]; 100 μM, symmetrical 147 mM Cl−",decreased CFTR Cl^− currents
same,"n (slope factor, Hill coefficient) of CFTR inhibition","[1]; ATP 0.3 mM, PKA 75 nM, −50 mV",0.7
same,Ki,"[1]; ATP 0.3 mM, PKA 75 nM, −50 mV, 37° C., drug in intracellular solution, read-out: Ki (drug concentration causing half-maximal inhibition of CFTR Cl− current, Hill plot)",58 µM
same,rank order of potency for CFTR inhibition,"[1]; concentration-response, FIG. 3",bengal rose B>phloxine B>eosin Y≧tetrachlorofluorescein>>fluorescein
same,voltage-dependence of CFTR inhibition,"[1]; voltage ramp ±100 mV, symmetrical 147 mM Cl−, ATP 1 mM",voltage-dependent
same,"cell growth (number of cells), day 0 to 6",[3]; 200 μM,inhibited the proliferation

# From US7304090B2, “Inhibition of the cystic fibrosis transmembrane conductance regulator chloride channel” (The University of Bristol, priority 2000, dated 2007)
